Earlier results in patent US6534508B2, “Methods and compositions for treating infection using optically pure (S)-lomefloxacin” (priority 1991, dated 2003).
Values after ≈ are worked out from the molar mass of the structure shown.

Test system: M. tuberculosis
Conditions: 11 strains resistant to conventional drug therapy; cited from earlier work

SMILES: CCn1cc(C(=O)O)c(=O)c2cc(F)c(N3CCNC(C)C3)c(F)c21 (racemic) [LM, 1-ethyl-6,8-difluoro-1,4-dihydro-7-(3-methyl-lpiperazinyl)-4-oxo-3-quinolinecarboxylic acid]
- MIC50: 1.0 µg/mL (≈ 2.85 µM)
- MIC90: 1.1 µg/mL (≈ 3.13 µM)
